Our source for the IC50 and EC50 values is patent US8987195B2 (priority 2012, dated 2015).

Assay [1] has as its target HCV NS3/4A protease genotype 1b (Hepatitis C virus genotype 1b, UniProt P26663). As to the kind of experiment: HCV NS3/4A protease time-resolved fluorescence (TRF) assay, Ki against genotype 1b. Type of assay: biochemical. The procedure, abridged:
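First, protease (genotype 1b 0.2 nM, A156T 0.4 nM, genotype 3a 0.025 nM) is preincubated 30 min with inhibitor. Next, 25 nM TRF substrate starts the reaction, run 2.5 h at room temperature. Finally, europium fluorescence is read and Ki calculated from IC50.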

For another assay, the system named is HCV genotype 1b replicon. Kind of assay: HCV replicon assay, genotype 1b replicon EC50. Type of assay: cell-based, Hepatitis C virus. The following applies: Hepatitis C virus, read-out: EC50 [gt-1b]. The essentials: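 Readout was replicon RNA copy number, by 32P-probe protection or TaqMan normalized to cellular cyclophilin A RNA, or luciferase activity for luciferase:Neo^r fusion lines. Cells were exposed to serially diluted compound for 24-48 hours without G418, then washed and lysed. EC50 derived from four-parameter fit relative to DMSO.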

Where [2] appears, read: IC50 [gt-1b] (nM), NS3/4A genotype 1b, enzyme 0.2 nM, K+ salt.
Where [3] appears, read: IC50 [gt-1b] (nM), NS3/4A genotype 1b, enzyme 0.2 nM.

SMILES strings stand for the structures. Where two headings read alike, the source gives them in different places.

As usually defined, the IC50 is the concentration at which inhibition is half-maximal. The term EC50 denotes the concentration that produces a half-maximal response. Consider `COc1ccc2nc(C)c3c(c2c1)C(F)(F)C[C@]1(C[C@H]2C(=O)N[C@]4(C(=O)NS(=O)(=O)C5(C)CC5)C[C@H]4/C=C\CCCCC[C@H](NC(=O)O[C@H](C)C(C)C)C(=O)N2C1)O3` [Example 263, (2R)-3-methylbutan-2-yl [(2S,6S,12Z,13aS,14aR,16aS)-1′,1′-difluoro-9′-methoxy-5′-methyl-14a-{[(1-methylcyclopropyl)sulfonyl]carbamoyl}-5,16-dioxo-1,1′,2′,5,6,7,8,9,10,11,13a,14,14a,15,16,16a-hexadecahydrospiro[cyclopropa[e]pyrrolo[1,2-a][1,4]diazacyclopentadecine-2,3′-pyrano[2,3-c]quinolin]-6-yl]carbamate], for which the half-inhibitory concentration (IC50) in assay [1] (setting [2]) was determined as 0.007 nM. Also, the EC50 in the assay with HCV genotype 1b replicon (genotype 1b replicon, K+ salt) came to 5300 pM.

For the compound `CCc1nc2ccc(OC)cc2c2c1O[C@]1(CC2)C[C@H]2C(=O)N[C@]3(C(=O)NS(=O)(=O)C4(C)CC4)C[C@H]3/C=C\CCCCC[C@H](NC(=O)OC(C)(C)C)C(=O)N2C1` [Example 312, tert-butyl [(2R,6S,12Z,13aS,14aR,16aS)-5′-ethyl-9′-methoxy-14a-{[(1-methylcyclopropyl)sulfonyl]carbamoyl}-5,16-dioxo-1,1′,2′,5,6,7,8,9,10,11,13a,14,14a,15,16,16a-hexadecahydrospiro[cyclopropa[e]pyrrolo[1,2-a][1,4]diazacyclopentadecine-2,3′-pyrano[2,3-c]quinolin]-6-yl]carbamate], the IC50 in assay [1] (setting [3]) stood at 0.009 nM. Besides, the EC50 with HCV genotype 1b replicon (genotype 1b replicon) was 3560 pM.

With `COc1ccc2nc(C)c3c(c2n1)CC[C@]1(C[C@H]2C(=O)N[C@]4(C(=O)NS(=O)(=O)C5(C)CC5)C[C@H]4/C=C\CCCCC[C@H](NC(=O)OC(C)(C)C(F)(F)F)C(=O)N2C1)O3` [Example 318, 1,1,1-trifluoro-2-methylpropan-2-yl [(2R,6S,12Z,13aS,14aR,16aS)-2′-methoxy-6′-methyl-14a-{[(1-methylcyclopropyl)sulfonyl]carbamoyl}-5,16-dioxo-1,5,6,7,8,9,9′,10,10′,11,13a,14,14a,15,16,16a-hexadecahydrospiro[cyclopropa[e]pyrrolo[1,2-a][1,4]diazacyclopentadecine-2,8′-pyrano[2,3-c][1,5]naphthyridin]-6-yl]carbamate], the IC50 in assay [1] (setting [3]) worked out at 0.013 nM. Further, the concentration giving a half-maximal response (EC50) in the assay on HCV genotype 1b replicon (genotype 1b replicon) came out at 4990 pM.

On to `Cc1nc2cc(Cl)ccc2c2c1O[C@]1(CC2)C[C@H]2C(=O)N[C@]3(C(=O)NS(=O)(=O)C4(C)CC4)C[C@H]3/C=C\CCCCC[C@H](NC(=O)OC(C)(C)C)C(=O)N2C1` [Example 233, tert-butyl [(2R,6S,12Z,13aS,14aR,16aS)-8′-chloro-5′-methyl-14a-{[(1-methylcyclopropyl)sulfonyl]carbamoyl}-5,16-dioxo-1,1′,2′,5,6,7,8,9,10,11,13a,14,14a,15,16,16a-hexadecahydrospiro[cyclopropa[e]pyrrolo[1,2-a][1,4]diazacyclopentadecine-2,3′-pyrano[2,3-c]quinolin]-6-yl]carbamate], for which the IC50 in assay [1] (setting [3]) is 0.051 nM. The EC50 in the assay on HCV genotype 1b replicon (genotype 1b replicon) is 1510 pM.

Consider `Cc1nc2cc(F)ccc2c2c1O[C@]1(CC2)C[C@H]2C(=O)N[C@]3(C(=O)NS(=O)(=O)C4(C)CC4)C[C@H]3/C=C\CCCCC[C@H](NC(=O)OCC(C)(C)C)C(=O)N2C1` [Example 339, 2,2-dimethylpropyl [(2R,6S,12Z,13aS,14aR,16aS)-8′-fluoro-5′-methyl-14a-{[(1-methylcyclopropyl)sulfonyl]carbamoyl}-5,16-dioxo-1,1′,2′,5,6,7,8,9,10,11,13a,14,14a,15,16,16a-hexadecahydrospiro[cyclopropa[e]pyrrolo[1,2-a][1,4]diazacyclopentadecine-2,3′-pyrano[2,3-c]quinolin]-6-yl]carbamate], for which the IC50 in assay [1] (setting [3]) was determined as 0.019 nM. For the same compound, in the assay on HCV genotype 1b replicon (genotype 1b replicon), the EC50 worked out at 1920 pM.

In the case of `Cc1nc2cc(Cl)ccc2c2c1O[C@]1(CC2)C[C@H]2C(=O)N[C@]3(C(=O)NS(=O)(=O)C4(C)CC4)C[C@H]3/C=C\CCCCC[C@H](NC(=O)OCC(C)(C)C)C(=O)N2C1` [Example 235, 2,2-dimethylpropyl [(2R,6S,12Z,13aS,14aR,16aS)-8′-chloro-5′-methyl-14a-{[(1-methylcyclopropyl)sulfonyl]carbamoyl}-5,16-dioxo-1,1′,2′,5,6,7,8,9,10,11,13a,14,14a,15,16,16a-hexadecahydrospiro[cyclopropa[e]pyrrolo[1,2-a][1,4]diazacyclopentadecine-2,3′-pyrano[2,3-c]quinolin]-6-yl]carbamate], the IC50 in assay [1] (setting [2]) is 0.027 nM. Also, the EC50 in the assay on HCV genotype 1b replicon (genotype 1b replicon, K+ salt) was determined as 4310 pM.

`CC(C)(C)OC(=O)N[C@H]1CCCCC/C=C\[C@@H]2C[C@@]2(C(=O)NS(=O)(=O)C2CC2)NC(=O)[C@@H]2C[C@]3(CCc4c(cnc5ccccc45)O3)CN2C1=O` [Example 98, tert-butyl {(2R,6S,12Z,13aS,14aR,16aS)-14a-[(cyclopropylsulfonyl)carbamoyl]-5,16-dioxo-1,1′,2′,5,6,7,8,9,10,11,13a,14,14a,15,16,16a-hexadecahydrospiro[cyclopropa[e]pyrrolo[1,2-a][1,4]diazacyclopentadecine-2,3′-pyrano[2,3-c]quinolin]-6-yl}carbamate] returned an IC50 in assay [1] (setting [3]) of 0.057 nM. The concentration giving a half-maximal response (EC50) with HCV genotype 1b replicon (genotype 1b replicon) is 9720 pM.

Regarding `Cc1nc2ccc(F)cc2c2c1O[C@]1(CC2)C[C@H]2C(=O)N[C@]3(C(=O)NS(=O)(=O)C4(C)CC4)C[C@H]3/C=C\CCCCC[C@H](NC(=O)OC3CCCC3)C(=O)N2C1` [Example 219, cyclopentyl [(2R,6S,12Z,13aS,14aR,16aS)-9′-fluoro-5′-methyl-14a-{[(1-methylcyclopropyl)sulfonyl]carbamoyl}-5,16-dioxo-1,1′,2′,5,6,7,8,9,10,11,13a,14,14a,15,16,16a-hexadecahydrospiro[cyclopropa[e]pyrrolo[1,2-a][1,4]diazacyclopentadecine-2,3′-pyrano[2,3-c]quinolin]-6-yl]carbamate], it took 0.004 nM to reach half-maximal inhibition in assay [1] (setting [3]) (IC50). In addition, the EC50 in the assay with HCV genotype 1b replicon (genotype 1b replicon) is 1200 pM.

For `Cc1nc2ccc(C(F)(F)F)cc2c2c1O[C@]1(CC2)C[C@H]2C(=O)N[C@]3(C(=O)NS(=O)(=O)C4(C)CC4)C[C@H]3/C=C\CCCCC[C@H](NC(=O)OC(C)(C)C)C(=O)N2C1` [Example 251, tert-butyl [(2R,6S,12Z,13aS,14aR,16aS)-5′-methyl-14a-{[(1-methylcyclopropyl)sulfonyl]carbamoyl}-5,16-dioxo-9′-(trifluoromethyl)-1,1′,2′,5,6,7,8,9,10,11,13a,14,14a,15,16,16a-hexadecahydrospiro[cyclopropa[e]pyrrolo[1,2-a][1,4]diazacyclopentadecine-2,3′-pyrano[2,3-c]quinolin]-6-yl]carbamate], in assay [1] (setting [3]), the IC50 was determined as 0.021 nM. Besides, the EC50 in the assay on HCV genotype 1b replicon (genotype 1b replicon) came out at 14300 pM.

With `CC[C@@H](C)OC(=O)N[C@H]1CCCCC/C=C\[C@@H]2C[C@@]2(C(=O)NS(=O)(=O)C2(C)CC2)NC(=O)[C@@H]2C[C@]3(CCc4c(c(C(F)F)nc5ccc(OC)cc45)O3)CN2C1=O` [Example 445, (2R)-butan-2-yl [(2R,6S,12Z,13aS,14aR,16aS)-5′-(difluoromethyl)-9′-methoxy-14a-{[(1-methylcyclopropyl)sulfonyl]carbamoyl}-5,16-dioxo-1,1′,2′,5,6,7,8,9,10,11,13a,14,14a,15,16,16a-hexadecahydrospiro[cyclopropa[e]pyrrolo[1,2-a][1,4]diazacyclopentadecine-2,3′-pyrano[2,3-c]quinolin]-6-yl]carbamate], the concentration for half-maximal inhibition (IC50) in assay [1] (IC50 [gt-1b], NS3/4A protease TRF assay, genotype 1b enzyme 0.2 nM, K+ salt) amounted to 0.014 nM. Besides, the EC50 in the assay with HCV genotype 1b replicon (HCV replicon, genotype 1b, K+ salt) amounted to 1140 pM.

For `CC1(S(=O)(=O)NC(=O)[C@@]23C[C@H]2/C=C\CCCCC[C@H](NC(=O)OC2(C4CC4)CC2)C(=O)N2C[C@@]4(CCc5c(c(C6CC6)nc6c(F)cccc56)O4)C[C@H]2C(=O)N3)CC1` [Example 191, 1,1′-bi(cyclopropyl)-1-yl [(2R,6S,12Z,13aS,14aR,16aS)-5′-cyclopropyl-7′-fluoro-14a-{[(1-methylcyclopropyl)sulfonyl]carbamoyl}-5,16-dioxo-1,1′,2′,5,6,7,8,9,10,11,13a,14,14a,15,16,16a-hexadecahydrospiro[cyclopropa[e]pyrrolo[1,2-a][1,4]diazacyclopentadecine-2,3′-pyrano[2,3-c]quinolin]-6-yl]carbamate], the IC50 in assay [1] (setting [3]) was determined as 0.012 nM. For the same compound, the EC50 in the assay with HCV genotype 1b replicon (genotype 1b replicon) stood at 3590 pM.

As to `CC(C)(C)OC(=O)N[C@H]1CCCCC/C=C\C2CC2(C(=O)NS(=O)(=O)C2(C)CC2)NC(=O)C2C[C@]3(CCc4c(c(C5CC5)nc5c(F)cccc45)O3)CN2C1=O` (stereo partly drawn) [Example 69, tert-butyl [(2R,6S,12Z)-5′-cyclopropyl-7′-fluoro-14a-{[(1-methylcyclopropyl)sulfonyl]carbamoyl}-5,16-dioxo-1,1′,2′,5,6,7,8,9,10,11,13a,14,14a,15,16,16a-hexadecahydrospiro[cyclopropa[e]pyrrolo[1,2-a][1,4]diazacyclopentadecine-2,3′-pyrano[2,3-c]quinolin]-6-yl]carbamate], in assay [1] (setting [2]), the IC50 came out at 0.012 nM. For the same compound, the EC50 in the assay on HCV genotype 1b replicon (genotype 1b replicon, K+ salt) came to 820 pM.
